Test results published in patent US9751869B2, “LXR modulators” (BRISTOL-MYERS SQUIBB COMPANY, priority 2013, dated 2017).

Molecular target: T1, LXRβ (Homo sapiens, UniProt P55055)
T1 construct: Co-transfection expression plasmids, comprising full-length LXRα (pCMX-h LXRα or LXRβ (pCMX-hLXRβ)); expressed in transfected cells; host or cells: CV-1 African green monkey kidney cells, transient transfection with pCMX-hLXRβ
T1 sequence (P55055 1-460): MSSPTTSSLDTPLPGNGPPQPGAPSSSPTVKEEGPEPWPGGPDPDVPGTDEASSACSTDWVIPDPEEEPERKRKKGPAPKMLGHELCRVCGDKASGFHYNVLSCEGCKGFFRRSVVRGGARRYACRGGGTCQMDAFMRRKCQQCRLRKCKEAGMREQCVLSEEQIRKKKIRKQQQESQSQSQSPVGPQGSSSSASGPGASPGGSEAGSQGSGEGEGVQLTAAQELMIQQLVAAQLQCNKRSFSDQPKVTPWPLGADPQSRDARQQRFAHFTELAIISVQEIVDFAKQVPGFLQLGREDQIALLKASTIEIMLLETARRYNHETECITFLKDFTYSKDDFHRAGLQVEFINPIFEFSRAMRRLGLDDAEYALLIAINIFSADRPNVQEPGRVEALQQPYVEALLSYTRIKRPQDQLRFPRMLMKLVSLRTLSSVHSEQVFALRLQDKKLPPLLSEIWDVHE
T1 sequence (P19793 1-462 partner): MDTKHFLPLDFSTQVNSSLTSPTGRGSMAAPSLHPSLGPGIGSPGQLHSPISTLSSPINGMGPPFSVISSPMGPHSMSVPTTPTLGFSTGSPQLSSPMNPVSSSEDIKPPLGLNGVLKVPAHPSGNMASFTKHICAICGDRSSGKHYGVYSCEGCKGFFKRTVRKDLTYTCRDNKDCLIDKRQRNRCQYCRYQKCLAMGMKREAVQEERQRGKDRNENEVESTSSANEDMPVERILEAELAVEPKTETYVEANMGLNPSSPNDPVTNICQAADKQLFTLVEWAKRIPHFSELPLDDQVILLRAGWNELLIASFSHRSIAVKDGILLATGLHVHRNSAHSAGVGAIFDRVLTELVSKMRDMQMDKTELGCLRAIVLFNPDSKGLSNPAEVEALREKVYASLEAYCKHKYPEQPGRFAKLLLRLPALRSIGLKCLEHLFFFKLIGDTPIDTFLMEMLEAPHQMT
Assay: LXR/LXRE co-transfection assay (luciferase reporter) in CV-1 cells, LXRβ
Assay type: cell-based
Conditions: for EC50: CV-1 cells transfected with pCMX-hLXRβ and LXREx1-Tk-Luciferase, 20 hours incubation, read-out: LXRbeta agonism EC50; for Emax: read-out: LXRbeta % EFFICACY
How it was run: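 Luciferase read-out after 20 h compound treatment at 37 °C of CV-1 cells carrying transfected hLXRβ plus one-copy LXRE reporter, endogenous RXR partnering. Sigmoidal fit of 10-point half-log curves (4 wells each) gave EC50; % efficacy versus maximal response of the propionamide reference agonist.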

[1] = CV-1 cells, relative to maximum response of high control N-(3-((4-fluorophenyl)-(naphthalene-2-sulfonyl)amino)propyl)-2,2-dimethylpropionamide

EC50	Emax [1]	LXRbeta % EFFICACY [1]	SMILES
59 nM	57%	–	Cc1nc(-c2ccc(OC(F)(F)F)cc2)c(-c2cc(-c3cc(F)c(CO)c(S(C)(=O)=O)c3)ccc2-n2nc(C(F)(F)F)cc2Cl)o1 [Example 348, (4′-(5-chloro-3-(trifluoromethyl)-1H-pyrazol-1-yl)-3-fluoro-3′-(2-methyl-4-(4-(trifluoromethoxy)phenyl)oxazol-5-yl)-5-(methylsulfonyl)biphenyl-4-yl)methanol]
186 nM	58%	–	CS(=O)(=O)c1cccc(-c2ccc(-n3ccc(C(F)(F)F)n3)c(-c3oc(C4CC4)nc3-c3ccc(OC(F)(F)F)cc3)c2)c1 [Example 338, 2-cyclopropyl-5-(3′-(methylsulfonyl)-4-(3-(trifluoromethyl)-1H-pyrazol-1-yl)biphenyl-3-yl)-4-(4-(trifluoromethoxy)phenyl)oxazole]
12 nM	78%	–	Cc1nc(-c2ccc(OC(F)F)cc2)c(-c2cc(-c3cc(F)c(CO)c(S(C)(=O)=O)c3)ccc2-n2nc(C(F)(F)F)cc2C)o1 [Example 325, (3′-(4-(4-(difluoromethoxy)phenyl)-2-methyloxazol-5-yl)-3-fluoro-4′-(5-methyl-3-(trifluoromethyl)-1H-pyrazol-1-yl)-5-(methylsulfonyl)biphenyl-4-yl) methanol]
11 nM	68%	–	Cc1nc(-c2ccc(OC(F)(F)F)cc2)c(-c2cc(-c3cnc(CO)c(S(C)(=O)=O)c3)ccc2-n2cc(Cl)c(C(F)(F)F)n2)o1 [Example 314, (5-(4-(4-chloro-3-(trifluoromethyl)-1H-pyrazol-1-yl)-3-(2-methyl-4-(4-(trifluoromethoxy)phenyl)oxazol-5-yl)phenyl)-3-(methylsulfonyl)pyridin-2-yl)methanol]
60 nM	78%	–	Cc1nc(-c2ccc(Cl)cc2Cl)c(-c2cc(-c3cccc(S(C)(=O)=O)c3)ccc2-n2cc(Cl)c(C(F)(F)F)n2)o1 [Example 423, 5-(4-(4-chloro-3-(trifluoromethyl)-1H-pyrazol-1-yl)-3′-(methylsulfonyl)-[1,1′-biphenyl]-3-yl)-4-(2,4-dichlorophenyl)-2-methyloxazole]
305 nM	80%	–	Cc1nc(-c2ccc(OC(F)(F)F)cc2)c(-c2cc(-c3cc(F)cc(S(C)(=O)=O)c3)ccc2-n2ccc(C(F)(F)F)n2)o1 [Example 334, 5-(3′-fluoro-5′-(methylsulfonyl)-4-(3-(trifluoromethyl)-1H-pyrazol-1-yl)biphenyl-3-yl)-2-methyl-4-(4-(trifluoromethoxy)phenyl)oxazole]
59 nM	99%	–	CNS(=O)(=O)c1cccc(-c2ccc(-c3cc(C(F)(F)F)nn3C)c(-c3oc(C)nc3-c3ccc(OC(F)(F)F)cc3)c2)c1 [Example 127, N-methyl-4′-(1-methyl-3-(trifluoromethyl)-1H-pyrazol-5-yl)-3′-(2-methyl-4-(4-(trifluoromethoxy)phenyl)oxazol-5-yl)-[1,1′-biphenyl]-3-sulfonamide]
12 nM	109%	–	Cc1c(C(C)(F)F)nn(C)c1-c1ccc(-c2cc(F)c(CO)c(S(C)(=O)=O)c2)cc1-n1nncc1-c1ccc(OC(F)(F)F)cc1 [Example 5]
159 nM	44%	–	Cc1nc(-c2ccc(OC(F)(F)F)cc2)c(-c2cc(-c3cccc(S(C)(=O)=O)c3)ccc2-c2cc(C(F)(F)C(N)=O)nn2C)o1 [Example 128]
11 nM	83%	–	Cc1nc(-c2cc(-c3cc(F)c(CO)c(S(C)(=O)=O)c3)ccc2-n2ccc(C(F)(F)F)n2)c(-c2ccc(OC(F)F)nc2)o1 [Example 395, (3′-(5-(6-(difluoromethoxy)pyridin-3-yl)-2-methyloxazol-4-yl)-3-fluoro-5-(methylsulfonyl)-4′-(3-(trifluoromethyl)-1H-pyrazol-1-yl)biphenyl-4-yl)methanol]
42 nM	55%	–	Cc1nc(-c2ccc3c(c2)OC(F)(F)O3)c(-c2cc(-c3cccc(S(C)(=O)=O)c3)ccc2-c2cc(C(F)(F)C(N)=O)nn2C)o1 [Example 73, 2-(5-(3-(4-(2,2-difluorobenzo[d][1,3]dioxol-5-yl)-2-methyloxazol-5-yl)-3′-(methylsulfonyl)biphenyl-4-yl)-1-methyl-1H-pyrazol-3-yl)-2,2-difluoroacetamide]
776 nM	79%	–	Cn1nc(C(=O)NCC(F)(F)F)cc1-c1ccc(-c2cccc(S(C)(=O)=O)c2)cc1-n1nncc1-c1ccc(OC(F)(F)F)cc1 [Example 39, 1-methyl-5-[3′-(methylsulfonyl)-3-(5-{4-[(trifluoromethyl)oxy]phenyl}-1H-1,2,3-triazol-1-yl)biphenyl-4-yl]-N-(2,2,2-trifluoroethyl)-1H-pyrazole-3-carboxamide]
950 nM	18%	–	Cc1nc(-c2ccc3c(c2)OC(F)(F)O3)c(-c2cc(-c3cccc(C(C)(C)C(N)=O)c3)ccc2-n2ccc(C(N)=O)n2)o1 [Example 364, 1-(3′-(1-amino-2-methyl-1-oxopropan-2-yl)-3-(4-(2,2-difluorobenzo[d][1,3]dioxol-5-yl)-2-methyloxazol-5-yl)-[1,1′-biphenyl]-4-yl)-1H-pyrazole-3-carboxamide]
113 nM	–	56%	Cc1nc(-c2ccc3c(c2)OC(F)(F)O3)c(-c2cc(-c3cccc(S(C)(=O)=O)c3)ccc2-c2cc(C(C)OC(N)=O)nn2C)o1 (stereo not shown) [Example 130, 1-(5-(3-(4-(2,2-difluorobenzo[d][1,3]dioxol-5-yl)-2-methyloxazol-5-yl)-3′-(methylsulfonyl)-[1,1′-biphenyl]-4-yl)-1-methyl-1H-pyrazol-3-yl)ethyl carbamate]
15 nM	77%	–	Cc1nc(-c2ccc(OC(F)F)cc2)c(-c2cc(-c3ccc(CO)c(S(C)(=O)=O)c3)ccc2-n2nc(C(F)(F)F)cc2C)o1 [Example 326, (3′-(4-(4-(difluoromethoxy)phenyl)-2-methyloxazol-5-yl)-4′-(5-methyl-3-(trifluoromethyl)-1H-pyrazol-1-yl)-3-(methylsulfonyl)biphenyl-4-yl)methanol]
1130 nM	60%	–	CN(C)C(=O)c1cc(-c2ccc(-c3cccc(S(C)(=O)=O)c3)cc2-n2nncc2-c2ccc(OC(F)(F)F)cc2)n(C)n1 [Example 38, N,N,1-trimethyl-5-[3′-(methylsulfonyl)-3-(5-{4-[(trifluoromethyl)oxy]phenyl}-1H-1,2,3-triazol-1-yl)biphenyl-4-yl]-1H-pyrazole-3-carboxamide]
27 nM	86%	–	Cc1nc(-c2ccc(OC(F)(F)F)cc2)c(-c2cc(-c3cc(F)c(CO)c(S(C)(=O)=O)c3)ccc2-n2cc(Cl)c(C(F)(F)F)n2)o1 [Example 379, (4′-(4-chloro-3-(trifluoromethyl)-1H-pyrazol-1-yl)-3-fluoro-3′-(2-methyl-4-(4-(trifluoromethoxy)phenyl)oxazol-5-yl)-5-(methylsulfonyl)-[1,1′-biphenyl]-4-yl)methanol]
432 nM	46%	–	Cc1nc(-c2ccc(OC(F)(F)F)cc2)c(-c2cc(-c3cccc(C(C)(C)C#N)c3)ccc2-n2ccc(C(F)(F)F)n2)o1 [Example 342, 2-methyl-2-(3′-(2-methyl-4-(4-(trifluoromethoxy)phenyl)oxazol-5-yl)-4′-(3-(trifluoromethyl)-1H-pyrazol-1-yl)biphenyl-3-yl) propanenitrile]
8 nM	72%	–	Cc1nc(-c2ccc3c(c2)OC(F)(F)O3)c(-c2cc(-c3cc(F)c(CO)c(S(C)(=O)=O)c3)ccc2-n2ccc(C(F)(F)F)n2)o1 [Example 349, (3′-(4-(2,2-difluorobenzo[d][1,3]dioxol-5-yl)-2-methyloxazol-5-yl)-3-fluoro-5-(methylsulfonyl)-4′-(3-(trifluoromethyl)-1H-pyrazol-1-yl)biphenyl-4-yl)methanol]
263 nM	12%	–	Cc1nc(-c2ccc3c(c2)OC(F)(F)O3)c(-c2cc(-c3cc(F)c(CO)c(S(C)(=O)=O)c3)ccc2-n2ccc(C(N)=O)n2)o1 [Example 360, 1-(3-(4-(2,2-difluorobenzo[d][1,3]dioxol-5-yl)-2-methyloxazol-5-yl)-3-fluoro-4′-(hydroxymethyl)-5′-(methylsulfonyl)-[1,1′-biphenyl]-4-yl)-1H-pyrazole-3-carboxamide]
